Where “and” joins values, the source holds several entries; their conditions need not be identical. Identical values can stand only once. Like-named read-outs stand apart in the source and are kept apart here.
Experiments:
MAPRE1 = molecular target: T1, MAPRE1 (Homo sapiens, UniProt Q15691); assay: Spectral shift target engagement assay, binary binding to MAPRE1; settings: 5 nM MAPRE1-NHS, interpolated; for EC50: no FKBP12, read-out: EC50 of the %Tbound, binary curve; for Kd: approximation, read-out: Spectral Shift Binary MAPRE1 KT,1
T1 construct: His-tag (N)
T1 sequence (Q15691 1-268): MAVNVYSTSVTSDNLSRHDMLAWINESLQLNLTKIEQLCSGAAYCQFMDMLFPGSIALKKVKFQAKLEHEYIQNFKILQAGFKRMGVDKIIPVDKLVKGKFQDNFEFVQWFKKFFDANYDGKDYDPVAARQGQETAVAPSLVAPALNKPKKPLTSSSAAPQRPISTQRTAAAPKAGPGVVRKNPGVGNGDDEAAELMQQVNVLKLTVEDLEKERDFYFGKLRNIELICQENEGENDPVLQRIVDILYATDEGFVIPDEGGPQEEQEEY
Text: (§1) Our method of choice is the spectral shift method, which monitors binding events on the target isothermally and in equilibrium via an environment-sensitive near-infrared fluorophore. In the case of target engagement, either the proximity of the ligand towards the dye or structural changes occurring in the target as a result of binding lead to a change in the chemical environment of the fluorophore. Those changes affect the physiochemical properties of the reporter fluorophore and translate into either blue or red shifts (or peak broadening) of emission peaks upon ligand binding, which can be sensitively monitored by simultaneously recording the fluorescence at two wavelengths (i.e., at 650 nm and 670 nm). Calculating the ratio between the two fluorescence channels then allows to monitor subtle emission shifts that occur as a result of target engagement. Affinity measurements can then be performed by recording the spectral shift as a function of ligand concentration.
(§2) Binding study through MAPRE1: MAPRE1 was labeled via lysines using an NHS-conjugated dye. The final concentration of MAPRE1NHS (referring to [Ttot]) was 5 nM. Compounds could be titrated up to a concentration of 200 μM (referring to [Ltot]). […] However more accuracy could only be achieved at higher ligand concentrations—ideally at full target saturation. However, this was experimentally infeasible due to assay conditions (i.e., the requirement of maintaining a certain DMSO concentration or avoiding solubility issues of the ligand). Although the determined KT,1 values of binding to MAPRE1 are only approximations, their relative ranking reflects the underlying differences in the affinity of the ligands L to MAPRE1. Performing these experiments in duplicates confirmed the high signal-to-noise ratio, i.e., there was no significant deviation between the two curves, indicating a high accuracy of the interpolated EC50 values. Due to the low [Ttot] = 5 nM, this value coincides with KT,1 (1.8 mM − 0.005 mM/2 ≈ 1.8 mM). […] Consequently, KT,2 corresponds to 173 nM and not 177.5 nM.
(§3) His-tagged FKBP12 was labeled using the His-Tag Labeling Kit RED-tris-NTA 2nd Generation (MO-L018; NanoTemper Technologies GmbH). The affinity between NTA dye and the His-tag of FKBP12 was determined as 7 nM. MAPRE1 was labeled using the Protein Labeling Kit RED-NHS 2nd Generation (MO-L011; NanoTemper Technologies GmbH). In brief, 10 µM of MAPRE1 was incubated with a 3-fold molar excess of fluorophore for 30 min. The unreacted fluorophore was removed by performing a size exclusion purification (B-column). Collecting the protein fraction yielded 1.8 µM labeled MAPRE1, with a degree of labeling of 0.8, as determined on a Nanodrop.
(§4) A 1:2 dilution series of all compounds (starting from the 10 mM stock concentration) was prepared in pure DMSO. Each concentration was diluted 25-fold with assay buffer (20 mM HEPES, pH 7.4, 150 mM NaCl, 1 mM DTT (all from Carl Roth, Karlsruhe, Germany), and 0.01% Pluronic F-127 (Sigma Aldrich, Taufkirchen, Germany)). Next, 10 µL from each of the prepared ligand dilutions was transferred into an empty well on a Dianthus Microwell Plate (DI-P001A). Another 10 µL of 2-fold concentrated labeled protein (either in the absence or the presence of 20 µM counter protein, both in assay buffer then yielded the final assay concentrations. Interaction measurements were prepared in duplicates for each condition. For binary interactions of compounds with MAPRE1, a final target concentration of 5 nM and a highest ligand concentration of 50 µM was prepared. For ternary interactions of compounds and MAPRE1 in the presence of 10 µM unlabeled FKBP12, the highest ligand concentration was increased to 200 µM, the highest concentration achievable while maintaining a constant 2% DMSO concentration. For all interactions measured via FKBP12, the target was prepared at a final concentration of 40 nM, supplemented with 5 nM NTA fluorophore. […]

[1] = test system: FKBP12:R,S-SLF-X:MAPRE1 ternary complex; parameters: method as in PMID 40059881; settings: TR-FRET proximity assay, reported earlier; cited from earlier work
[2] = molecular target: T2, MAPRE1 in the presence of FKBP12 (Homo sapiens, UniProt P62942+Q15691); assay: Spectral shift target engagement assay, binding to MAPRE1 in the presence of 10 μM FKBP12 (ternary); settings: for EC50: 5 nM MAPRE1-NHS, 10 μM FKBP12, read-out: EC50 of the %Tbound, ternary curve; for Ratio [Ctot]/KC,1: [Ctot] = 10 μM FKBP12; for 100 × (EC50 %Tbound ternary − 0.5 [Ttot] − KT,2)/KT,2: difference between EC50 of the %Tbound, ternary curve and KT,2; for 100 × (EC50 %Tbound ternary − 0.5 [Ttot] − KT,2)/KT,2 / Intrinsic cooperativity α: [Ttot] = 5 nM; for Intrinsic cooperativity α: from KC,1, KT,1 and EC50 of the %Tbound, ternary curve with the mathematical model, [Ctot] = 10,000 nM; for Kd: ternary Kd, model-based ([CL] at [Ltot] = EC50), read-out: KT,2
T2 construct: His-tag (N)
Text: as §1, §2, §3, §4

[3] = molecular target: FKBP12 in the presence of MAPRE1 (Homo sapiens, UniProt P62942+Q15691); assay: Spectral shift target engagement assay, binding to FKBP12 in the presence of 10 μM MAPRE1 (ternary)
Text: as §1
(§5) Binding studies through FKBP12: To monitor the binding of R,--SLF-11 by the stronger binding FKBP12 in the absence and in the presence of 10 μM MAPRE1 via %Cbound, binary and %Cbound, ternary, respectively, the concentration of reversibly NTA-labeled FKBP12 was limited to [Ctot] = 40 nM. […] In contrast to the experimental setup in the previous two binding experiments with monitoring through the weaker binding protein MAPRE1, where the applied protein concentrations were optimally chosen, this is not the case for the binding experiment through the stronger binder FKBP12. First of all, the applied excess of T with [Ttot] = 10 μM is roughly 20000-fold off of the proposed 100 times KT,1 threshold, which would correspond to 180 mM. Only under such excess conditions of T can the equilibrium of forming TL under the constraint that all ligand L is bound to T be reached to ensure that [Ltot] approaches the “ligand” concentration [TL]. […] If KC,2 is sufficiently high, the 20 nM deviation to correct for the protein concentration could be neglected. However, the resulting calculated value for KC,2 is 0.023 nM, accounting for the cooperativity α = 10,405 and KC,1 = 234 nM as derived by the MAPRE1 experiment. This value is far below the applied protein concentration of [Ctot] = 40 nM and makes it infeasible to estimate KC,2 from the EC50 of the %Cbound, ternary curve. Consequently, the EC50 shifts, meaning the apparent cooperativity, from monitoring the binding by the stronger binding protein C are diverging from the underlying intrinsic cooperativity α. […] The deviation of calculated (254 nM/24.2 nM = 10.5) and measured apparent cooperativity (254 nM/66 nM = 3.8) can be explained by a negative cooperativity induced by the His6-NTA tag of FKBP12. Studies to lower [Ctot] and identify a better position for the spectral shift tag on FKBP12 are ongoing (Figure 6a).
as §3
(§6) A 1:2 dilution series of all compounds (starting from the 10 mM stock concentration) was prepared in pure DMSO. Each concentration was diluted 25-fold with assay buffer (20 mM HEPES, pH 7.4, 150 mM NaCl, 1 mM DTT (all from Carl Roth, Karlsruhe, Germany), and 0.01% Pluronic F-127 (Sigma Aldrich, Taufkirchen, Germany)). Next, 10 µL from each of the prepared ligand dilutions was transferred into an empty well on a Dianthus Microwell Plate (DI-P001A). […]

FKBP12 [4] = molecular target: T3, FKBP12 (Homo sapiens, UniProt P62942); assay: Spectral shift target engagement assay, binary binding to FKBP12; settings: 40 nM FKBP12-NTA; for EC50: no MAPRE1, read-out: EC50 of the %Cbound, binary curve; for Kd: KC,1 = EC50 − [Ctot]/2
Text: as §1, §5, §3, §6

FKBP12 [5] = molecular target: T3, FKBP12; parameters: method as in PMID 40059881; settings: TR-FRET competitive binding assay from previous work; listed as R,R-SLF-1d; read-out: EC50_FKBP12; cited from earlier work
[6] = molecular target: His-tagged FKBP12, labeled with RED-tris-NTA dye (UniProt P62942); assay: other fluorescence titration; spectral shift, no compound: 40 nM labeled FKBP12 vs. 10,000 nM MAPRE1
[7] = 40 nM FKBP12-NTA, 10 μM MAPRE1, read-out: EC50 of the %Cbound, ternary curve (measured)
[8] = calculated with the model using α from MAPRE1 binding, read-out: calc EC50 of the %Cbound, ternary curve

T2 sequence (P62942 whole entry, one chain of several): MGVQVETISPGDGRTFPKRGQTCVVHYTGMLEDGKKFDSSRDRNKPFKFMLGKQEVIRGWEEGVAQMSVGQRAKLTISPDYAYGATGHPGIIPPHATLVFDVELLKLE
T3 sequence (P62942 whole entry, species assumed): as the sequence (P62942 whole entry, one chain of several) above
Sequence of FKBP12 in the presence of MAPRE1 (P62942 whole entry, one chain of several): as above
Sequence of His-tagged FKBP12, labeled with RED-tris-NTA dye (P62942 whole entry): as the sequence (P62942 whole entry, one chain of several) above

In the case of `C=C1CCN2C(=O)COc3cccc(c3)C(CCc3ccc(OC)c(OC)c3)OC(=O)C3CCCCN3C(=O)C(=O)C(C)(C)COC(=O)C(C(F)(F)F)NC(=O)C2C1` (centres unmarked) [R,S-SLF-8], the EC50 (MAPRE1) is listed as over 200 µM, the Kd (MAPRE1) is listed as over 200 µM and the “TR-FRET Recruitment Assay (%Amax)” value [1] is listed as 27%. The EC50 [2] was 1.07 µM, the “Ratio [Ctot]/KC,1” value [2] was 92 and the “100 × (EC50 %Tbound ternary − 0.5 [Ttot] − KT,2)/KT,2” value [2] was 1.1%. For the same compound, the “Intrinsic cooperativity α” value [2] was 1509, the Kd [2] was 1.06 µM and the EC50 [3, 7] was 0.065 µM. The EC50 [3, 8] was 0.031 µM, the EC50 (FKBP12 [4]) was 0.129 µM and the Kd (FKBP12 [4]) was 0.109 µM.

For `C=C1CCN2C(=O)COc3cccc(c3)C(CCc3ccc(OC)c(OC)c3)OC(=O)C3CCCCN3C(=O)C(=O)C(C)(C)COC(=O)C(C)NC(=O)C2C1` (centres unmarked) [S,S-SLF-1d], the EC50 (FKBP12 [5]) is listed as 0.72 µM, the EC50 (MAPRE1) is listed as over 200 µM and the Kd (MAPRE1) is listed as over 200 µM. For the same compound, the “TR-FRET Recruitment Assay (%Amax)” value [1] was 0%, the EC50 [2] was over 1400 µM and the “Ratio [Ctot]/KC,1” value [2] was 1428 and 1429. The “Intrinsic cooperativity α” value [2] was “No positive cooperativity”, the EC50 [3, 7] was 0.029 µM and the EC50 (FKBP12 [4]) was 0.027 µM. For the same compound, the Kd (FKBP12 [4]) was 0.007 µM.

For `C=C1CCN2C(=O)COc3cccc(c3)C(CCc3ccc(OC)c(OC)c3)OC(=O)C3CCCCN3C(=O)C(=O)C(C)(C)COC(=O)C3(CC3)NC(=O)C2C1` (centres unmarked) [R,--SLF-11], the “TR-FRET Recruitment Assay (%Amax)” value [1] is given as 350%, the EC50 [2] is given as 0.18 µM and the “Ratio [Ctot]/KC,1” value [2] is given as 41. The “100 × (EC50 %Tbound ternary − 0.5 [Ttot] − KT,2)/KT,2” value [2] was 2.6%, the “Intrinsic cooperativity α” value [2] was 10,405 and the Kd [2] was 0.173 µM. For the same compound, the EC50 [3, 7] was 0.066 µM, the EC50 (FKBP12 [4]) was 0.254 µM and the Kd (FKBP12 [4]) was 0.234 µM.

“unlabeled MAPRE1 (from UniProt Q15691 1-268) (natural protein)” showed a Kd [6] of over 100 µM.

In the case of `C=C1CCN2C(=O)COc3cccc(c3)C(CCc3ccc(OC)c(OC)c3)OC(=O)C3CCCCN3C(=O)C(=O)C(C)(C)COC(=O)C(CO)NC(=O)C2C1` (centres unmarked) [R,S-SLF-6], the EC50 (MAPRE1) is given as over 200 µM, the Kd (MAPRE1) is given as over 200 µM and the “TR-FRET Recruitment Assay (%Amax)” value [1] is given as 255%. For the same compound, the EC50 [2] was 0.114 µM, the “Ratio [Ctot]/KC,1” value [2] was 222 and the “100 × (EC50 %Tbound ternary − 0.5 [Ttot] − KT,2)/KT,2” value [2] was 0%. For the same compound, the “Intrinsic cooperativity α” value [2] was 4484, the Kd [2] was ~0.111 µM and 0.111 µM and the EC50 [3, 7] was 0.024 µM. The EC50 [3, 8] was 0.021 µM, the EC50 (FKBP12 [4]) was 0.065 µM and the Kd (FKBP12 [4]) was 0.045 µM.

— article PMC11989212, “Experimental Conditions to Retrieve Intrinsic Cooperativity α Directly from Single Binding Assay Data Exemplified by the Ternary Complex Formation of FKBP12, MAPRE1 and Macrocyclic Molecular Glues” (International Journal of Molecular Sciences, 2025)
